Assay results: US12458021B2, “Microbiocidal derivatives” (SYNGENTA CROP PROTECTION AG, priority 2019, dated 2025)

Tests used:
Alternaria solani = Alternaria solani / tomato / leaf disc (early blight); type: in vivo; conditions: foliar, tomato leaf disks cv. Baby, inoculated 2 days after application, assessed 5-7 days after application, read-out: control of Alternaria solani (percent disease control compared to untreated)
Method: Example B1: Alternaria solani/Tomato/Leaf Disc (Early Blight) Tomato leaf disks cv. Baby are placed on agar in multiwell plates (24-well format) and sprayed with the formulated test compound diluted in water. The leaf disks are inoculated with a spore suspension of the fungus 2 days after application. The inoculated leaf disks are incubated at 23° C./21° C. […] […]-185.

[1] = tested on: Botryotinia fuckeliana (Botrytis cinerea); assay: Botryotinia fuckeliana (Botrytis cinerea) / liquid culture (gray mould); type: cell-based; conditions: Vogels broth, 24° C., 3-4 days after application, read-out: control of Botryotinia fuckeliana (inhibition of growth, photometric)
Method: Example B2: Botryotinia fuckeliana (Botrytis cinerea)/Liquid Culture (Gray Mould) Conidia of the fungus from cryogenic storage are directly mixed into nutrient broth (Vogels broth). After placing a (DMSO) solution of test compound into a microtiter plate (96-well format), the nutrient broth containing the fungal spores is added. The test plates are incubated at 24° C. and the inhibition of growth is determined photometrically 3-4 days after application. […] […]-190.

[2] = tested on: Glomerella lagenarium (Colletotrichum lagenarium); assay: Glomerella lagenarium (Colletotrichum lagenarium) / liquid culture (anthracnose); type: cell-based; conditions: Colletotrichum orbiculare, PDB potato dextrose broth, 24° C., 3-4 days after application, read-out: control of Glomerella lagenarium (inhibition of growth, photometric)
How it was run: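 Fungal growth inhibition measured photometrically 3-4 days post-application at 24° C. Spores were mixed directly into potato dextrose broth and dispensed onto test compound supplied in DMSO.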

[3] = tested on: Blumeria graminis f. sp. tritici (Erysiphe graminis f. sp. tritici); assay: Blumeria graminis f. sp. tritici / wheat / leaf disc preventative (powdery mildew on wheat); type: in vivo; conditions: foliar, wheat leaf segments cv. Kanzler, inoculated 1 day after application, assessed 6-8 days after application, read-out: control of Blumeria graminis f. sp. tritici (percent disease control compared to untreated)
Source text: Example B4: Blumeria graminis f. sp. tritici (Erysiphe graminis f. sp. tritici)/Wheat/Leaf Disc Preventative (Powdery Mildew on Wheat) Wheat leaf segments cv. Kanzler are placed on agar in a multiwell plate (24-well format) and sprayed with the formulated test compound diluted in water. The leaf disks are inoculated by shaking powdery mildew infected plants above the test plates 1 day after application. […] […]-192.

[4] = tested on: Phaeosphaeria nodorum (Septoria nodorum); assay: Phaeosphaeria nodorum (Septoria nodorum) / wheat / leaf disc preventative (glume blotch); type: in vivo; conditions: Parastagonospora nodorum, foliar, wheat leaf segments cv. Kanzler, inoculated 2 days after application, assessed 5-7 days after application, read-out: control of Phaeosphaeria nodorum (percent disease control compared to untreated)
How it was run: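 Wheat cv. Kanzler leaf discs on agar were sprayed with formulated compound diluted in water and inoculated with spores 2 days later. Discs were kept at 20° C, 75% rh, 12 h light/dark; percent disease control versus untreated was scored 5-7 days after application.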

[5] = tested on: Monographella nivalis (Microdochium nivale); assay: Monographella nivalis (Microdochium nivale) / liquid culture (foot rot cereals); type: cell-based; conditions: PDB potato dextrose broth, 24° C., 4-5 days after application, read-out: control of Monographella nivalis (inhibition of growth, photometric)
How it was run: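 Growth inhibition measured by photometry 4-5 days post-application at 24° C. Compound was dispensed as DMSO solution, then PDB broth containing conidia from cryogenic storage was added.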

[6] = tested on: Mycosphaerella arachidis (Cercospora arachidicola); assay: Mycosphaerella arachidis (Cercospora arachidicola) / liquid culture (early leaf spot); type: cell-based; conditions: PDB potato dextrose broth, 24° C., 4-5 days after application, read-out: control of Mycosphaerella arachidis (inhibition of growth, photometric)
How it was run: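 Conidia from cryogenic storage suspended in potato dextrose broth and added to compound in DMSO. Incubation at 24° C; growth inhibition read photometrically 4-5 days after application.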

[7] = tested on: Puccinia recondita f. sp. tritici; assay: Puccinia recondita f. sp. tritici / wheat / leaf disc preventative (brown rust); type: in vivo; conditions: foliar, wheat leaf segments cv. Kanzler, inoculated 1 day after application, assessed 7-9 days after application, read-out: control of Puccinia recondita f. sp. tritici, preventative (percent disease control compared to untreated)
How it was run: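 Wheat leaf segments (cv. Kanzler) on agar were sprayed with formulated compound, then inoculated with spores 1 day later. Segments were incubated at 19 °C, 75% rh with 12 h light/dark. Percent disease control versus untreated was scored 7–9 days after application.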

[8] = tested on: Magnaporthe grisea (Pyricularia oryzae); assay: whole plant or invertebrate; type: in vivo; conditions: foliar, read-out: control of Magnaporthe grisea (percent disease control compared to untreated)
Pyrenophora teres = Pyrenophora teres / barley / leaf disc preventative (net blotch); type: in vivo; conditions: foliar, barley leaf segments cv. Hasso, inoculated 2 days after application, assessed 5-7 days after application, read-out: control of Pyrenophora teres (disease control compared to untreated)
How it was run: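 Barley cv. Hasso leaf discs on agar were sprayed with diluted formulated compound, then inoculated with spore suspension 2 days later. Incubation at 20 °C, 65% rh, 12 h light/dark; disease control versus untreated assessed 5-7 days after application.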

Sclerotinia sclerotiorum = Sclerotinia sclerotiorum / liquid culture (cottony rot); type: cell-based; conditions: PDB potato dextrose broth, mycelia fragments, 24° C., 3-4 days after application, read-out: control of Sclerotinia sclerotiorum (inhibition of growth, photometric)
Method: Example B14: Sclerotinia sclerotiorum/Liquid Culture (Cottony Rot) Mycelia fragments of a newly grown liquid culture of the fungus are directly mixed into nutrient broth (PDB potato dextrose broth). After placing a (DMSO) solution of test compound into a microtiter plate (96-well format) the nutrient broth containing the fungal material is added. The test plates are incubated at 24° C. and the inhibition of growth is determined photometrically 3-4 days after application.

[9] = tested on: Mycosphaerella graminicola (Septoria tritici); assay: Mycosphaerella graminicola (Septoria tritici) / liquid culture (Septoria blotch); type: cell-based; conditions: Zymoseptoria tritici, PDB potato dextrose broth, 24° C., 4-5 days after application, read-out: control of Mycosphaerella graminicola (inhibition of growth, photometric)
How it was run: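 Fungal growth inhibition was read photometrically 4-5 days after application. Compound was dosed from a DMSO solution into liquid cultures of spores in potato dextrose broth, incubated at 24° C.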

[10] = tested on: Puccinia recondita f. sp. tritici; assay: Puccinia recondita f. sp. tritici / wheat / leaf disc curative (brown rust); type: in vivo; conditions: foliar, wheat leaf segments cv. Kanzler, compound applied 1 day after inoculation, assessed 6-8 days after application, read-out: control of Puccinia recondita f. sp. tritici, curative (percent disease control compared to untreated)
Method: Example B10: Puccinia recondita f. sp. tritici/Wheat/Leaf Disc Curative (Brown Rust) Wheat leaf segments cv. Kanzler are placed on agar in multiwell plates (24-well format). The leaf segments are inoculated with a spore suspension of the fungus. Plates are stored in darkness at 19° C. and 75% rh. The formulated test compound diluted in water is applied 1 day after inoculation. […] […]-185.

COc1ccc(Nc2cc(F)c(F)c(F)c2)nc1C(=O)NCC(C)(C)C [Compound P-145, N-(2,2-dimethylpropyl)-3-methoxy-6-(3,4,5-trifluoroanilino)pyridine-2-carboxamide]
≥ 80%: pest or weed control at 200 ppm (Alternaria solani) | inhibition at 20 ppm [1] | inhibition at 20 ppm [2] | pest or weed control at 200 ppm [3] | pest or weed control at 200 ppm [4] | inhibition at 20 ppm [5] | inhibition at 20 ppm [6] | pest or weed control at 200 ppm [7] | pest or weed control at 200 ppm [8] | pest or weed control at 200 ppm (Pyrenophora teres) | inhibition at 20 ppm (Sclerotinia sclerotiorum) | inhibition at 20 ppm [9]

COc1ccc(Nc2cc(F)cc(Cl)c2)nc1C(=O)NC(C)(C)C [Compound P-152, N-tert-butyl-6-(3-chloro-5-fluoro-anilino)-3-methoxy-pyridine-2-carboxamide]
≥ 80%: pest or weed control at 200 ppm (Alternaria solani) | inhibition at 20 ppm [1] | inhibition at 20 ppm [2] | pest or weed control at 200 ppm [3] | pest or weed control at 200 ppm [4] | inhibition at 20 ppm [5] | inhibition at 20 ppm [6] | pest or weed control at 200 ppm [7] | pest or weed control at 200 ppm [8] | pest or weed control at 200 ppm (Pyrenophora teres) | inhibition at 20 ppm (Sclerotinia sclerotiorum) | inhibition at 20 ppm [9]

COc1ccc(Nc2cccc(F)c2)nc1C(=O)NCC(C)(C)C [Compound P-139, N-(2,2-dimethylpropyl)-6-(3-fluoroanilino)-3-methoxy-pyridine-2-carboxamide]
≥ 80%: pest or weed control at 200 ppm (Alternaria solani) | inhibition at 20 ppm [1] | inhibition at 20 ppm [2] | pest or weed control at 200 ppm [3] | pest or weed control at 200 ppm [4] | inhibition at 20 ppm [5] | inhibition at 20 ppm [6] | pest or weed control at 200 ppm [7] | pest or weed control at 200 ppm [8] | pest or weed control at 200 ppm (Pyrenophora teres) | inhibition at 20 ppm (Sclerotinia sclerotiorum) | inhibition at 20 ppm [9]

COc1ccc(Nc2ccnc(F)c2)nc1C(=O)NC(C)(C)C [Compound P-156, N-tert-butyl-6-[(2-fluoro-4-pyridyl)amino]-3-methoxy-pyridine-2-carboxamide]
≥ 80%: inhibition at 20 ppm [2] | pest or weed control at 200 ppm [3] | pest or weed control at 200 ppm [10] | pest or weed control at 200 ppm [7] | pest or weed control at 200 ppm [8]

CCOc1ccc(Nc2cc(F)cc(F)c2)nc1C(=O)NC1CCC1(C)C (centres unmarked) [Compound P-44, 6-(3,5-difluoroanilino)-N-(2,2-dimethylcyclobutyl)-3-ethoxy-pyridine-2-carboxamide]
≥ 80%: pest or weed control at 200 ppm (Alternaria solani) | inhibition at 20 ppm [2] | pest or weed control at 200 ppm [3] | pest or weed control at 200 ppm [4] | inhibition at 20 ppm [5] | inhibition at 20 ppm [6] | pest or weed control at 200 ppm [8] | pest or weed control at 200 ppm (Pyrenophora teres) | inhibition at 20 ppm (Sclerotinia sclerotiorum) | inhibition at 20 ppm [9]

COc1ccc(Nc2cc(F)nc(F)c2)nc1C(=O)NC1(C(C)(C)C)CCC1 [Compound P-185, N-(1-tert-butylcyclobutyl)-6-[(2,6-difluoro-4-pyridyl)amino]-3-methoxy-pyridine-2-carboxamide]
≥ 80%: pest or weed control at 200 ppm (Alternaria solani) | pest or weed control at 200 ppm [3] | inhibition at 20 ppm [5] | pest or weed control at 200 ppm [10] | pest or weed control at 200 ppm [7] | pest or weed control at 200 ppm [8] | pest or weed control at 200 ppm (Pyrenophora teres) | inhibition at 20 ppm [9]

COc1ccc(Nc2cc(F)nc(F)c2)nc1C(=O)NC1(C)CCC1 [Compound P-127, 6-[(2,6-difluoro-4-pyridyl)amino]-3-methoxy-N-(1-methylcyclobutyl)pyridine-2-carboxamide]
≥ 80%: pest or weed control at 200 ppm (Alternaria solani) | inhibition at 20 ppm [2] | pest or weed control at 200 ppm [3] | inhibition at 20 ppm [5] | pest or weed control at 200 ppm [10] | pest or weed control at 200 ppm [7] | pest or weed control at 200 ppm [8] | pest or weed control at 200 ppm (Pyrenophora teres) | inhibition at 20 ppm [9]

COc1ccc(Nc2cc(F)cc(F)c2)nc1C(=O)NCCc1ccc(OC(F)(F)F)cc1 [Compound P-74, 6-(3,5-difluoroanilino)-3-methoxy-N-[2-[4-(trifluoromethoxy)phenyl]ethyl]pyridine-2-carboxamide]
≥ 80%: pest or weed control at 200 ppm (Alternaria solani) | inhibition at 20 ppm [2] | pest or weed control at 200 ppm [3] | inhibition at 20 ppm [5] | inhibition at 20 ppm [6] | pest or weed control at 200 ppm [8] | inhibition at 20 ppm (Sclerotinia sclerotiorum) | inhibition at 20 ppm [9]

COc1ccc(Nc2cc(F)cc(F)c2)nc1C(=O)NC1(C(C)(C)C)CCC1 [Compound P-180, N-(1-tert-butylcyclobutyl)-6-(3,5-difluoroanilino)-3-methoxy-pyridine-2-carboxamide]
≥ 80%: pest or weed control at 200 ppm (Alternaria solani) | inhibition at 20 ppm [2] | pest or weed control at 200 ppm [3] | pest or weed control at 200 ppm [4] | inhibition at 20 ppm [5] | inhibition at 20 ppm [6] | pest or weed control at 200 ppm [7] | pest or weed control at 200 ppm [8] | pest or weed control at 200 ppm (Pyrenophora teres) | inhibition at 20 ppm (Sclerotinia sclerotiorum) | inhibition at 20 ppm [9]

COc1ccc(Nc2cc(F)nc(F)c2)nc1C(=O)NC(C)(C)C [Compound P-91, N-tert-butyl-6-[(2,6-difluoro-4-pyridyl)amino]-3-methoxy-pyridine-2-carboxamide]
≥ 80%: pest or weed control at 200 ppm (Alternaria solani) | inhibition at 20 ppm [2] | pest or weed control at 200 ppm [3] | inhibition at 20 ppm [5] | pest or weed control at 200 ppm [10] | pest or weed control at 200 ppm [7] | pest or weed control at 200 ppm [8] | inhibition at 20 ppm [9]
